The text below walks through data of patent publication US20160143910A1, “METHODS OF TREATING CANCER AND PREVENTING CANCER DRUG RESISTANCE” (GENENTECH, INC., priority 2013, published 2016).

Test [1] has as its system SKBR3. Briefly: Cell number with KDM5 antagonist alone, SKBR3. In kind it is cell-based. Conditions: after 96 hours in drug, concentrations below 25 uM. The procedure:
(§1) 3×10^4 cells were plated in each well of a 12-well cluster dish. 24 hours after plating, media was removed and replaced with media containing drugs. Fresh media was replaced every 2 days until untreated cells reached confluence. Media was then removed, cells were washed with Phosphate Buffered Saline (PBS), and then fixed for 15 min with 4% formaldehyde in PBS. Cells were then washed with PBS and stained with the fluorescent nucleic acid stain, Syto60 (1 nM in PBS; Molecular Probes) for 15 min. Dye was removed, cell monolayers were washed with PBS, and fluorescence quantitation was carried out at 700 nm with an Odyssey Infrared Imager (Li-Cor Biosciences).

The test system of test [2] is H3K4me3. Nature of the test: H3K4me3 MSD ELISA in SKBR3. Format: cell-based. The conditions noted are these: SKBR3 (breast cancer). The protocol: (§2) Cells were rinsed with PBS and MSD Buffer AT (10 mM HEPES, pH 7.9, 5 mM MgCl2, 0.25M sucrose, Benzonase (1:10000), 1% Triton X-100 supplemented with fresh 1× Protease Inhibitor cocktail and 1 mM PMSF/AEBSF) was added. Cells were lysed for 30 minutes and then 10 uL 5M NaCl was added and allowed to lyse on ice for another 15 minutes. Lysates were rinse with 150 uL ice-cold NO Salt NO detergent buffer (20 mM Tris pH 7.5, 1 mM EDTA, 1 mM EGTA, supplemented with fresh 1× Protease Inhibitor cocktail and 1 mM PMSF).
(§3) MSD plates (Catalog #L15XA-3) were then coated with Capture Antibody Anti-histone (Millipore Catalog # MAB3422) for H3K4me3: 2 ug/mL final concentration and/or plates testing for H3: 1 ug/mL final concentration. MSD plates were then blocked with 5% Blocker A (MSD Catalog #R93AA-2). Lysates to MSD plates were subsequently transferred, sealed and incubated with shaking at RT for 2:30 hours and then incubated with detection antibody in 1% Blocker A in TBST for 30 min (anti-Histone H3 (#4499 from Cell Signaling) at 0.125 ug/mL and/or anti-K4Me3 (#9751 from Cell Signaling) at 1 ug/mL). Sulfo-tag rabbit antibody (MSD Catalog# R32AB-1) in 1% Blocker A in TBST was added and incubated for 1 h at RT. […] 1× Read Buffer (MSD Catalog #R92TD-3) was added and read on MSD SECTOR® Imager 2400. Data was analyzed data using MACRO template provided using samples treated with DMSO as 0% or Min. […]
(In general: In an ELISA, binding on a coated surface is turned into a signal by an enzyme label.)

In test [3] the test system is SKBR3. Briefly: Drug tolerant persister (DTP) assay, SKBR3. The conditions noted are these: in combination with the recited cancer therapy agent. In kind it is cell-based. The procedure: (§4) Drug-sensitive cells were treated with relevant drug as described herein at concentrations exceeding 100 times the established IC50 values, for three rounds, with each treatment lasting 72 hours. Viable cells remaining attached on the dish at the end of the third round of relevant drug treatment were considered to be DTPs, and were collected for analysis.
(§5) The structures of CPI-382 and CPI-383 are provided below.

The subject of test [4] is H3K4me3. Nature of the test: H3K4me3 MSD ELISA in PC9. Format: cell-based, human. The conditions noted are these: PC9 (NSCLC). The procedure: as §2, §3
The test system of another test is H441 cells. Nature of the test: Drug tolerant persister (DTP) assay, H441. Format: cell-based. Conditions: in combination with the recited cancer therapy agent. The protocol: Specifically for carboplatin and paclitaxel DTPs, Cells were plated and grown to 60-70% confluency then treated with Carboplatin (5.38 uM) and Paclitaxel (1.25 uM) for 5 cycles of 24 hours on 48 hours off drug. DTPs were collected and analyzed 1 week after the final dose of chemotherapy.
as §5

Test [5] relates to PC9 cells. Nature of the test: Gamma irradiation of PC9 cells after KDM5 inhibitor pretreatment. Format: cell-based, human. The protocol: For Gamma irradiation the cells were treated for 5 days with inhibitors replated at 500,000 cells with the inhibitor. After cell attachment (approximately 8 hours), the cells were irradiated, and cells were counted 5 days after irradiation.

Another test relates to HCC1954. Briefly: Drug tolerant persister (DTP) assay, HCC1954. In kind it is cell-based. Conditions: HCC1954 (breast cancer); in combination with the recited cancer therapy agent. The protocol:
as §4, §5

In test [6] the test system is PC9 cells. Nature of the test: Drug tolerant persister (DTP) assay, PC9 with Tarceva (erlotinib). In kind it is cell-based, human. Conditions: stained 30 days after.
From the text: […] Viable cells remaining attached on the dish at the end of the third round of relevant drug treatment were considered to be DTPs, and were collected for analysis.
as §5

For test [7], the system named is H3K4me3. Nature of the test: H3K4me3 MSD ELISA in H441. In kind it is cell-based. Conditions: H441 (NSCLC). The procedure: as §2, §3
Test [8] relates to H3K4me3. Nature of the test: H3K4me3 MSD ELISA in H596. In kind it is cell-based. The conditions noted are these: H596 (lung epithelial adenosquamous carcinoma). The protocol: as §2, §3
Test [9] deals with PC9 cells. Briefly: Cell number with KDM5 antagonist alone, PC9. In kind it is cell-based, human. Conditions: after 96 hours in drug, concentrations below 50 uM. The protocol: as §1
A further test deals with A375. Briefly: Cell viability assay (cell titer Glo), A375. Format: cell-based. Conditions: Homo sapiens, A-375, 96 h; A375, 4 days of incubation, 8 doses. The procedure:
(§6) One goal was to identify a cell line that would be sensitive to vemurafenib and amenable to DTP formation. For this, a set of 18 melanoma cell lines were tested by standard cell viability assay using cell titer Glo readout after 4 days of incubation with 8 different doses of vemurafenib. The results identified 3 melanoma cell lines (A375, Colo829 and HT144) with GI50's below 600 nM. All 3 of these cell lines were b raf mutant. After experiments with all these cell lines, Colo-829 was selected as the preferred cell line for DTP establishment.
(§7) 1.1 Identifying melanoma cell lines sensitive to Vemurafenib • Day 0: 1000 cells/well were plated in 100 μl total volume in a 96 well flat bottom plate. • Day 1: The cells were treated with vemurafenib. The highest concentration in the assay was 20 μM and was diluted 3 fold down with the lowest concentration being 9 nM. • Day 5: 100 μl of cell titer glo was added to each well and the plates read on Envision. The data was plotted using graphpad prism. 1.2 DTP establishment in melanoma cell lines • Day 0: Cells (4.5×10^6 cells/P150 dishes) were plated, 4 plates/cell line. • Day 2: All the cell lines were 60-80% confluent. […] The cells in these plates were counted and ⅛th the numbers were replated in 2 new P150 dishes. […] The cells were counted and the percentage of cells remaining on the Vemurafenib treated dish vs the control dish were identified. […]
Background: Cellular ATP, detected with luciferase, serves as a proxy for viable cell number.

In a further test the test system is HT144. Briefly: Cell viability assay (cell titer Glo), HT144. Format: cell-based. Conditions: Homo sapiens, HT-144, 96 h; HT144, 4 days of incubation, 8 doses. The procedure: as §6, §7
The test system of the next test is Colo829. Briefly: Cell viability assay (cell titer Glo), Colo829. In kind it is cell-based. Conditions: Homo sapiens, COLO-829, 96 h; Colo829, 4 days of incubation, 8 doses. The procedure:
as §6, §7

Another test deals with SW480 cells. Nature of the test: DTP model of CRC cell line SW480 with 5-fluorouracil and SN-38. Format: cell-based. The procedure: A model for resistance to standard-of-care chemotherapy for colorectal cancer (CRC) was developed by treating CRC cell line SW480 with a combination of 5-fluorouracil and the irinotecan active metabolite SN-38 in a ratio of their relative IC50 values (33 μM 5-FU and 6 ηM SN-38) continuously for 16 days, followed by drug withdrawal. The cells progressively die during this treatment period. The remaining DTP cells constitute approximately 8% of the initial cell population and appear large and non-dividing. After drug withdrawal, cells continue to die for several more days, but then re-initiate proliferation and expand to form DTEP colonies by about 2 weeks in the absence of drugs.

Setting [10] is: nuc-RED PC9, various concentrations for 5 days prior to 1 uM Tarceva (erlotinib).

In the case of CPI-455, the cell number result in the test on SKBR3 [1] and in the test with PC9 cells [9] was “did not substantially affect cell number” throughout. The H3K4me3 result in the test on H3K4me3 [2], with H3K4me3 [4], with H3K4me3 [7] and in the test with H3K4me3 [8] was “increase H3K4me3” in each case. Also, the “development of drug tolerant persisters” value is reported as “capable of inhibiting the development of drug tolerant persisters” with SKBR3 [3]; “capable of inhibiting the development of drug tolerant persisters” with H441 cells; “capable of inhibiting the development of drug tolerant persisters” in the test with PC9 cells [5] (in combination with radiation therapy); “capable of inhibiting the development of drug tolerant persisters” in the test on HCC1954; “capable of inhibiting the development of drug tolerant persisters” in the test with PC9 cells [6] (PC9, in combination with cancer therapy agent, 25 uM for 5 days prior to 1uM Tarceva). Further, the “number of cells following γ-irradiation” value with PC9 cells [5] (PC9, pretreatment for 5 days, compared to inactive controls) is “decreases the number of cells following γ-irradiation”.

Turning to `O=c1[nH]c(Oc2cnn(Cc3ccccc3)c2)nc2ncccc12` [CPI-383], the “development of drug tolerant persisters” value with PC9 cells [6] (setting [10]) is on record as “no significant effect”.

As usually defined, the GI50 is the concentration giving 50% growth inhibition. Read a high GI50 as less potent growth inhibition. For the compound `CCCS(=O)(=O)Nc1ccc(F)c(C(=O)c2c[nH]c3ncc(-c4ccc(Cl)cc4)cc23)c1F` [vemurafenib, Vemurafenib], the GI50 with A375, in the test on HT144 and in the test with Colo829 was under 600 nM in each case.

On to `CC(/C=C/C(=O)NO)=C\[C@@H](C)C(=O)c1ccc(N(C)C)cc1` [Trichostatin A], for which, in the test on SW480 cells (20 ηM), the DTP survival entry is listed as “does not affect DTP survival”.

As for `Nc1ncn([C@@H]2O[C@H](CO)[C@@H](O)[C@H]2O)c(=O)n1` [5-azacytidine], the DTP survival entry in the test with SW480 cells (0.2 μM) is given as “does not affect DTP survival”.

For the compound `O=c1[nH]c(Oc2cnn(Cc3ccccc3)c2)nc2cnccc12` [CPI-382], in the test on PC9 cells [6] (setting [10]), the “development of drug tolerant persisters” value is “capable of reducing the development of drug tolerant persisters”.
